The source of these data is US20080227640A1, “Plant Growth Regulation” (Bayer CropScience GmbH, priority 2004, published 2008).

For experiment [1], the system named is wheat (Triticum aestivum, variety "TRISO"). Kind of experiment: Root growth assay, seed treatment, wheat. The note with it: Root Growth of 100 set as standard (untreated control), wet root weight 16 (±2) days post treatment. It is filed as in vivo. The text has this: (§1) Plant roots are a highly proliferative tissue which allows to be seen as a reliable target organ in order to screen for plant growth regulators. The results obtained are regarded as an indication for the overall effects on a plant of plant growth regulators identified by such a system. By using this root assay one is enabled to determine the effect of a seed treatment to root growth and/or germination and/or changes in habitat of germinated plants in order to identify the possible use as a yield enhancer. Two seeds of wheat (Triticum aestivum, variety “TRISO”) or 1 seed of maize (Zea mays, variety “LORENZO”) per hole in a plastic tray which contains an architecture of 8×13 holes were placed on compost soil covered with sand. These seeds were treated with 100 μl/hole, which creates an application volume of approx. 1200 l/ha, of a compound solution at active ingredient rates equivalent to 100, 10 and 1 g a.i./ha of each compound using an robotic application system (Lizzy Spray Robotics). Six replicates in a row of each compound and concentration were done. The outer rim of the above defined plastic tray was untreated to avoid false negative effects and the middle row (No. 7) was used as untreated control. The treated seeds were allowed to dry for approx. 4 hours and subsequently covered with sand and watered. The trays were stored in climate chambers with 14 hours lighting at a temperature of 24° C. (±2) at daytime and 16° C. (±2) at night and relative humidity (rH) of 60% and daily watered. Assessments were done 16 (±2) days post treatment by counting the germinated plants and assessing the phytotoxicity symptoms and percentage. In addition, the roots were washed out and the shoots were cut directly above the seed and the wet roots were placed on dry paper towels for approximately 30 minutes and weighted afterwards. This procedure provides a similar grade of moisture to the roots so that a comparison of the weights is possible.
(§2) The effects observed concerning Root Growth given in column 2 (Root Growth of “100” is set as the standard) are directed to concentrations that are equivalent to 100, 10, 1 g a.i./ha, each.

The test system of experiment [2] is maize (Zea mays, variety "LORENZO"). Kind of experiment: Root growth assay, seed treatment, maize. Type of experiment: in vivo. The conditions noted are these: Root Growth of 100 set as standard (untreated control), wet root weight 16 (±2) days post treatment.
Description: as §1, §2

Turning to `O=C1Nc2ccc(Br)cc2C1=NNc1cc(Cl)cc(Cl)c1` [Compound 1.5], the “Root Growth” value in experiment [1] (1 g a.i./ha) was 149; in experiment [1] (10 g a.i./ha), 117; in experiment [1] (100 g a.i./ha), 161.

`O=C1Nc2ccc(Br)cc2C1=NNc1c(F)c(F)cc(F)c1F` [Compound 1.2]: the “Root Growth” value is given as 69 in experiment [2] (1 g a.i./ha); 116 in experiment [2] (10 g a.i./ha); 567 in experiment [2] (100 g a.i./ha); 198 in experiment [1] (1 g a.i./ha); 228 in experiment [1] (10 g a.i./ha); 274 in experiment [1] (100 g a.i./ha).

As for `O=C1Nc2ccc(I)cc2C1=NNc1ncc(C(F)(F)F)cc1Cl` [Compound 1.1], the “Root Growth” value in experiment [1] (1 g a.i./ha) is recorded as 209; in experiment [1] (10 g a.i./ha), 93; in experiment [1] (100 g a.i./ha), 170.

For the molecule `Cc1ccc(NN=C2C(=O)Nc3ccc(Br)cc32)cc1` [Compound 1.6], the “Root Growth” value in experiment [2] (1 g a.i./ha) is listed as 149; in experiment [2] (10 g a.i./ha) it was 140; in experiment [2] (100 g a.i./ha) it was 137.

Take `Cc1ccc(NN=C2C(=O)Nc3ccc([N+](=O)[O-])cc32)cc1Cl` [Compound 1.12]: the “Root Growth” value in experiment [2] (1 g a.i./ha) amounted to 148; in experiment [2] (10 g a.i./ha), 88; in experiment [2] (100 g a.i./ha) it was 114.

Turning to `O=C1Nc2ccc(Br)cc2C1=NNc1ccc(Cl)cc1` [Compound 1.4], the figures for the “Root Growth” value in experiment [2] (1 g a.i./ha), in experiment [2] (10 g a.i./ha) and in experiment [2] (100 g a.i./ha) were 105, 125 and 99, respectively.

With `O=C1Nc2ccc(I)cc2/C1=C1/Nc2ccccc2/C1=N\O` [Compound 2.1, 5-Iodoindirubin-3′-oxime], the entries for the “Root Growth” value in experiment [1] (1 g a.i./ha), in experiment [1] (10 g a.i./ha) and in experiment [1] (100 g a.i./ha) were 135, 151 and 122, respectively.

On to `O=C1Nc2ccc([N+](=O)[O-])cc2C1=NNc1ncc(C(F)(F)F)cc1Cl` [Compound 1.8], for which the “Root Growth” value in experiment [2] (1 g a.i./ha) came to 174; in experiment [2] (10 g a.i./ha), 100; in experiment [2] (100 g a.i./ha), 48.

Take `O=C1Nc2ccc(F)cc2C1=C1Nc2ccccc2C1=NO` [Compound 2.7]: the “Root Growth” value in experiment [2] (1 g a.i./ha) was 174; in experiment [2] (10 g a.i./ha), 159; in experiment [2] (100 g a.i./ha) it was 118; in experiment [1] (1 g a.i./ha), 182; in experiment [1] (10 g a.i./ha), 390; in experiment [1] (100 g a.i./ha) it was 172.

On to `O=C1Nc2ccc(F)cc2C1=NNc1c(F)c(F)cc(F)c1F` [Compound 1.18], for which the results for the “Root Growth” value in experiment [2] (1 g a.i./ha), in experiment [2] (10 g a.i./ha) and in experiment [2] (100 g a.i./ha) were 150, 85 and 170, respectively.

Take `NS(=O)(=O)c1ccc(NN=C2C(=O)Nc3ccc(F)cc32)cc1` [Compound 1.23, 4-[2-(5-Fluoro-2-oxo-1,2-dihydro-3H-indol-3-ylidene)-hydrazino]-benzenesulfonamide]: the “Root Growth” value stood at 135 in experiment [1] (1 g a.i./ha), 61 in experiment [1] (10 g a.i./ha) and 65 in experiment [1] (100 g a.i./ha).

On to `O=C1Nc2ccc(Cl)cc2C1=NNc1cccc([N+](=O)[O-])c1` [Compound 1.10], for which the “Root Growth” value in experiment [2] (1 g a.i./ha) amounted to 126; in experiment [2] (10 g a.i./ha), 107; in experiment [2] (100 g a.i./ha), 102.

For the molecule `CCON=C1C(=C2C(=O)Nc3ccc(Br)cc32)Nc2ccccc21` [Compound 2.4, 5-Bromoindirubin-3′-ethyloxime], the “Root Growth” value was determined as 184 in experiment [1] (1 g a.i./ha), 115 in experiment [1] (10 g a.i./ha) and 62 in experiment [1] (100 g a.i./ha).
